# Where no end group is shown, it is not given here. [ ]: non-standard residue; d: D form. Cit = NC(=O)NCCC[C@H](N)C(=O)O; Api = NC1(C(=O)O)CCNCC1; Dab = NCC[C@H](N)C(=O)O; Iph = iodophenylalanine
# Tested on: HELA-654 cells
# Test: Hela-654 eGFP assay (incucyte imaging, GFP positive cells, 72 h)
# Type: cell-based
# Settings: 72 h, read-out: EC50 (at 72 h)
# Protocol: HELA-654 cells were imaged at 72 hours with an incucyte and the number of GFP positive cells versus total cell counts were calculated with the incucyte image analysis software. Statistical analysis was conducted using a one-way analysis of variance (ANOVA) test with Dunnett's multiple comparison test. Bars represent mean±standard deviation (SD), with P<0.05 was considered to indicate statistical significance, (**** p<0.0001, *** […], ** p<0.01, * p<0.05).
# HELA-654 cells were imaged at 72 hours with an incucyte and the number of GFP positive cells versus total cell counts were calculated with the incucyte image analysis software.
row,Substance,EC50 [µM]
1,GCTATTACCTTAACCCAG (all phosphorodiamidate morpholino (PMO)) [reference compound],22.7
2,Dab-Pro-Arg-Dab-Leu-His-Ser-Dab-Ala-Thr-Lys-Trp-Lys-Lys ([Dab]PR[Dab]LHS[Dab]ATKWKK; also: PMO conjugate) [PMO-CXP5],10

# Same assay, conditions: CXP1 Dab analogs, 72 h, read-out: EC50 (at 72 h)
row,Substance,EC50 [µM]
1,Dab-Gln-Dab-Thr-Ser-Iph-Gly-Dab-Gly-Pip-Dab-Trp-Dab-Dab-Lys-Trp-Lys-Lys [PMO-CXP1AD],5.64
2,Dab-Gln-Dab-Thr-Ser-Iph-Gly-Arg-Gly-Dab-Dab-Trp-Dab-Dab-Lys-Trp-Lys-Lys ([Dab]Q[Dab]TS[Iph]GRG[Dab][Dab]W[Dab][Dab]KWKK; also: PMO conjugate) [PMO-CXP1AE],6.38
3,Dab-Gln-Dab-Thr-Ser-Iph-Gly-Arg-Gly-Pip-Dab-Trp-Dab-Dab-Lys-Trp-Lys-Lys ([Dab]Q[Dab]TS[Iph]GRG[Api][Dab]W[Dab][Dab]KWKK; also: PMO conjugate) [PMO-CXP1AC],4.75
4,Dab-Gln-Dab-Thr-Ser-Iph-Gly-Dab-Gly-Dab-Dab-Trp-Dab-Dab-Lys-Trp-Lys-Lys [PMO-CXP1AF],5.73

# Same assay, conditions: CXP1 analogs (unnatural amino acids replaced), 72 h, read-out: EC50 (72 h)
row,Substance,EC50 [µM]
1,Lys-Gln-Lys-Thr-Ser-Iph-Gly-Arg-Gly-Lys-Lys-Trp-Lys-Lys (KQKTS[Iph]GRGKKWKK; also: PMO conjugate) [PMO-CXP1Y],14.4
2,Lys-Gln-Lys-Thr-Ser-Phe-Gly-Arg-Gly-Pip-Lys-Trp-Lys-Lys (KQKTSFGRG[Api]KWKK; not fully specified (C-terminus); printed as Lys-Gln-Lys-Thr-Ser-Phe-Gly-Arg-Gly-Pip-Lys-Trp-Lys-Lys; also: PMO conjugate) [PMO-CXP1X],17.4
3,Lys-Gln-Lys-Thr-Ser-Iph-Gly-Lys-Gly-Pip-Lys-Trp-Lys-Lys (KQKTS[Iph]GKG[Api]KWKK; not fully specified (C-terminus); printed as Lys-Gln-Lys-Thr-Ser-Iph-Gly-Lys-Gly-Pip-Lys-Trp-Lys-Lys; also: PMO conjugate) [PMO-CXP1AA],13.1
4,Lys-Gln-Lys-Thr-Ser-Phe-Gly-Arg-Gly-Lys-Lys-Trp-Lys-Lys (KQKTSFGRGKKWKK; also: PMO conjugate) [PMO-CXP1Z],21.1

# Same assay, conditions: Iph scan, 30 μM of compound, 72 hours
row,Substance,Percentage of GFP Positive Cells at 72 hours (30 μM) [%]
1,Lys-Gln-Lys-Thr-Ser-Iph-Gly-Arg-Gly-Pip-Lys-Trp-Lys-Iph-Lys-Trp-Lys-Lys (KQKTS[Iph]GRG[Api]KWK[Iph]KWKK; not fully specified (C-terminus); printed as Lys-Gln-Lys-Thr-Ser-Iph-Gly-Arg-Gly-Pip-Lys-Trp-Lys-Iph-Lys-Trp-Lys-Lys; also: PMO conjugate) [PMO-CXP1W],94.11
2,Lys-Gln-Lys-Thr-Ser-Iph-Gly-Arg-Gly-Iph-Lys-Trp-Lys-Lys (KQKTS[Iph]GRG[Iph]KWKK; also: PMO conjugate) [PMO-CXP1T],36.5
3,Lys-Gln-Iph-Thr-Ser-Iph-Gly-Arg-Gly-Pip-Lys-Trp-Lys-Lys (KQ[Iph]TS[Iph]GRG[Api]KWKK; also: PMO conjugate) [PMO-CXP1R],87.6
4,Lys-Gln-Lys-Thr-Ser-Iph-Gly-Arg-Gly-Pip-Iph-Trp-Lys-Lys (KQKTS[Iph]GRG[Api][Iph]WKK; also: PMO conjugate) [PMO-CXP1U],66.4
5,Lys-Gln-Lys-Thr-Ser-Iph-Gly-Iph-Gly-Pip-Lys-Trp-Lys-Lys (KQKTS[Iph]G[Iph]G[Api]KWKK; not fully specified (C-terminus); printed as Lys-Gln-Lys-Thr-Ser-Iph-Gly-Iph-Gly-Pip-Lys-Trp-Lys-Lys; also: PMO conjugate) [PMO-CXP1S],82.3
6,Iph-Gln-Lys-Thr-Ser-Iph-Gly-Arg-Gly-Pip-Lys-Trp-Lys-Lys ([Iph]QKTS[Iph]GRG[Api]KWKK; also: PMO conjugate) [PMO-CXP1Q],85
7,Lys-Gln-Lys-Thr-Ser-Iph-Gly-Arg-Gly-Pip-Lys-Trp-Iph-Lys [PMO-CXP1V],86.4

# Same assay, conditions: alanine scan, 20 μM of PPMO, 72 hours
row,Substance,Percentage of GFP Positive Cells at 72 hours (20 μM) [%]
1,Lys-Gln-Lys-Thr-Ser-Iph-Gly-Arg-Ala-Pip-Lys-Trp-Lys-Lys (KQKTS[Iph]GRA[Api]KWKK; also: PMO conjugate) [PMO-CXP1J],53.2
2,Lys-Gln-Lys-Thr-Ser-Iph-Gly-Arg-Gly-Ala-Lys-Trp-Lys-Lys (KQKTS[Iph]GRGAKWKK; also: PMO conjugate) [PMO-CXP1K],39.3
3,Lys-Gln-Lys-Thr-Ser-Iph-Gly-Arg-Gly-Pip-Lys-Ala-Lys-Lys (KQKTS[Iph]GRG[Api]KAKK; also: PMO conjugate) [PMO-CXP1M],51.0
4,Lys-Gln-Lys-Thr-Ser-Iph-Gly-Arg-Gly-Pip-Lys-Trp-Ala-Lys (KQKTS[Iph]GRG[Api]KWAK; not fully specified (C-terminus); printed as Lys-Gln-Lys-Thr-Ser-Iph-Gly-Arg-Gly-Pip-Lys-Trp-Ala-Lys; also: PMO conjugate) [PMO-CXP1N],45.4
5,Lys-Ala-Lys-Thr-Ser-Iph-Gly-Arg-Gly-Pip-Lys-Trp-Lys-Lys (KAKTS[Iph]GRG[Api]KWKK; also: PMO conjugate) [PMO-CXP1C],50.0
6,Lys-Gln-Lys-Thr-Ser-Iph-Ala-Arg-Ala-Pip-Lys-Trp-Lys-Lys (KQKTS[Iph]ARA[Api]KWKK; also: PMO conjugate) [PMO-CXP1P],41.6
7,Lys-Gln-Lys-Thr-Ser-Iph-Gly-Arg-Gly-Pip-Ala-Trp-Lys-Lys (KQKTS[Iph]GRG[Api]AWKK; also: PMO conjugate) [PMO-CXP1L],41.8
8,Lys-Gln-Ala-Thr-Ser-Iph-Gly-Arg-Gly-Pip-Lys-Trp-Lys-Lys (KQATS[Iph]GRG[Api]KWKK; also: PMO conjugate) [PMO-CXP1D],48.2
9,Lys-Gln-Lys-Thr-Ser-Iph-Gly-Ala-Gly-Pip-Lys-Trp-Lys-Lys (KQKTS[Iph]GAG[Api]KWKK; also: PMO conjugate) [PMO-CXP1I],42.0
10,Lys-Gln-Lys-Ala-Ser-Iph-Gly-Arg-Gly-Pip-Lys-Trp-Lys-Lys (KQKAS[Iph]GRG[Api]KWKK; also: PMO conjugate) [PMO-CXP1E],70.5
11,Lys-Gln-Lys-Thr-Ser-Iph-Ala-Arg-Gly-Pip-Lys-Trp-Lys-Lys (KQKTS[Iph]ARG[Api]KWKK; also: PMO conjugate) [PMO-CXP1H],65.5
12,Lys-Gln-Lys-Thr-Ser-Ala-Gly-Arg-Gly-Pip-Lys-Trp-Lys-Lys (KQKTSAGRG[Api]KWKK; also: PMO conjugate) [PMO-CXP1G],55.8
13,Lys-Gln-Lys-Thr-Ser-Iph-Gly-Arg-Gly-Pip-Lys-Trp-Lys-Ala-Lys-Trp-Lys-Lys (KQKTS[Iph]GRG[Api]KWKAKWKK; not fully specified (C-terminus); printed as Lys-Gln-Lys-Thr-Ser-Iph-Gly-Arg-Gly-Pip-Lys-Trp-Lys-Ala-Lys-Trp-Lys-Lys; also: PMO conjugate) [PMO-CXP1O],39.2
14,Lys-Gln-Lys-Thr-Ala-Iph-Gly-Arg-Gly-Pip-Lys-Trp-Lys-Lys (KQKTA[Iph]GRG[Api]KWKK; also: PMO conjugate) [PMO-CXP1F],65.5
15,Ala-Gln-Lys-Thr-Ser-Iph-Gly-Arg-Gly-Pip-Lys-Trp-Lys-Lys (AQKTS[Iph]GRG[Api]KWKK; also: PMO conjugate) [PMO-CXP1B],50.5

# Same assay, conditions: chimeric peptide PMO conjugates, 72 h, read-out: EC50 (at 72 h)
row,Substance,EC50 [µM]
1,Cit-Met-Phe-Gly-Pip-Dab-Dab-Lys-Ala-Pro-Lys-Trp-Lys-Lys-Gly-Lys-Gln-Lys-Thr-Ser-Iph-Gly-Arg-Gly-Pip-Lys-Trp-Lys-Lys ([Cit]MFG[Api][Dab][Dab]KAPKWKKGKQKTS[Iph]GRG[Api]KWKK; also: PMO conjugate) [PMO-CXP4-CXP1],59.2
2,"Lys-Trp-Lys-Lys-Gln-Lys-Thr-Ser-Iph-Gly-Arg-Gly-Pip-Lys-Trp-Lys-Lys (KWKKQKTS[Iph]GRG[Api]KWKK; not fully specified (N-terminus, C-terminus); printed as Lys-Trp-Lys-Lys-Gln-Lys-Thr-Ser-Iph-Gly-Arg-Gly-Pip-Lys-Trp-Lys-Lys; also: PMO conjugate) [SD-CXP1]",2.28
3,Dab-Val-Ala-Arg-Asn-Asn-Dab-Thr-Lys-Gly-Lys-Trp-Lys-Lys-Gly-Lys-Gln-Lys-Thr-Ser-Iph-Gly-Arg-Gly-Pip-Lys-Trp-Lys-Lys [PMO-CXP3-CXP1],0.026
4,Lys-Gln-Lys-Thr-Ser-Lys-Gln-Lys-Thr-Ser-Iph-Gly-Arg-Gly-Pip-Lys-Trp-Lys-Lys (KQKTSKQKTS[Iph]GRG[Api]KWKK; not fully specified (C-terminus); printed as Lys-Gln-Lys-Thr-Ser-Lys-Gln-Lys-Thr-Ser-Iph-Gly-Arg-Gly-Pip-Lys-Trp-Lys-Lys; also: PMO conjugate) [SC-CXP1],4.01
5,Lys-Gln-Lys-Thr-Ser-Iph-Gly-Arg-Gly-Pip-Lys-Trp-Lys-Lys-Gly-Lys-Gln-Lys-Thr-Ser-Iph-Gly-Arg-Gly-Pip-Lys-Trp-Lys-Lys (KQKTS[Iph]GRG[Api]KWKKGKQKTS[Iph]GRG[Api]KWKK; not fully specified (C-terminus); printed as Lys-Gln-Lys-Thr-Ser-Iph-Gly-Arg-Gly-Pip-Lys-Trp-Lys-Lys-Gly-Lys-Gln-Lys-Thr-Ser-Iph-Gly-Arg-Gly-Pip-Lys-Trp-Lys-Lys; also: PMO IVS2-654 conjugate) [PMO-CXP1-CXP1],1.07

# Source: US20250171776A1, “NON-CANONICAL CELL-PENETRATING PEPTIDES FOR ANTISENSE OLIGOMER DELIVERY” (priority 2023, published 2025)
